US10765676B2, “Trk-inhibiting compound” (ONO PHARMACEUTICAL CO., LTD., priority 2013, dated 2020)

System: sodium monoiodoacetate-induced model rats
Experiment: Analgesic effect on sodium monoiodoacetate-induced model rats
Type: in vivo, rat
Details: MIA-induced model rats, day 24
[1] = right hind limb weight load ratio, test substance orally twice a day from day 14, experiment with tramadol as positive control (Table 7)
[2] = right hind limb weight load ratio, test substance orally twice a day from day 14, experiment with morphine as positive control (Table 8)

SMILES	Percent improvement (%) [1]	Percent improvement (%) [2]	further results
Nc1ncc(Cl)cc1-c1ccc(Oc2ncc(NC(=O)Nc3cc(C(F)(F)F)ccc3-n3cccn3)cn2)cc1 [Example 7, 1-(2-(1H-pyrazol-1-yl)-5-(trifluoromethyl)phenyl)-3-(2-(4-(2-amino-5-chloropyridin-3-yl)phenoxy)pyrimidin-5-yl) urea]	61%		
Cc1cn(-c2ccc(C(F)(F)F)cc2NC(=O)Nc2cnc(Oc3ccc(-c4cc(Cl)cnc4N)cc3)nc2)nn1 [Example 8-1, 1-(2-(4-(2-amino-5-chloropyridin-3-yl)phenoxy)pyrimidin-5-yl)-3-(2-(4-methyl-1H-1,2,3-triazol-1-yl)-5-(trifluoromethyl)phenyl)urea]	60%		
Nc1ncc(F)cc1-c1ccc(Oc2ncc(NC(=O)Nc3cc(C(F)(F)F)ccc3-n3ccnn3)cn2)cc1 [Example 14-5, 1-(2-(1H-1,2,3-triazol-1-yl)-5-(trifluoromethyl)phenyl)-3-(2-(4-(2-amino-5-fluoropyridin-3-yl)phenoxy)pyrimidin-5-yl)urea]	47%		
Nc1ncc(F)cc1-c1ccc(Oc2ncc(NC(=O)Nc3cc(C(F)(F)F)ccc3-c3cccnc3)cn2)cc1 [Example 14-6, 1-(2-(4-(2-amino-5-fluoropyridin-3-yl)phenoxy)pyrimidin-5-yl)-3-(2-(pyridin-3-yl)-5-(trifluoromethyl)phenyl)urea]		53%	
Nc1ncc(Cl)cc1-c1ccc(Oc2ncc(NC(=O)Nc3ccc(C(F)(F)F)cc3Cl)cn2)cc1 [Example 15-6, 1-(2-(4-(2-amino-5-chloropyridin-3-yl)phenoxy)pyrimidin-5-yl)-3-(2-chloro-4-(trifluoromethyl)phenyl)urea]	51%		
Nc1ncc(C(F)(F)F)cc1-c1ccc(Oc2ncc(NC(=O)Nc3cc(C(F)(F)F)ccc3-n3ccc(C(F)(F)F)n3)cn2)cc1 [Example 15-52, 1-(2-{4-[2-amino-5-(trifluoromethyl)-3-pyridinyl]phenoxy}-5-pyrimidinyl)-3-{5-(trifluoromethyl)-2-[3-(trifluoromethyl)-1H-pyrazol-1-yl]phenyl}urea]		60%	
Nc1ncc(Cl)cc1-c1ccc(Oc2ncc(NC(=O)Nc3cc(C(F)(F)F)ccc3-c3ccccc3)cn2)cc1 [Example 15-55, 1-{2-[4-(2-amino-5-chloro-3-pyridinyl)phenoxy]-5-pyrimidinyl}-3-[4-(trifluoromethyl)-2-biphenylyl]urea]		62%	
Nc1ncc(Cl)cc1-c1ccc(Oc2ncc(NC(=O)Nc3cc(C(F)(F)F)ccc3-n3cc(Cl)cn3)cn2)cc1 [Example 15-63, 1-{2-[4-(2-amino-5-chloro-3-pyridinyl)phenoxy]-5-pyrimidinyl}-3-[2-(4-chloro-1H-pyrazol-1-yl)-5-(trifluoromethyl)phenyl]urea]		53%	
Nc1ncc(Cl)cc1-c1ccc(Oc2ncc(NC(=O)Nc3ccc(C(F)(F)F)cc3C(F)(F)F)cn2)cc1 [Example 15-77, 1-{2-[4-(2-amino-5-chloro-3-pyridinyl)phenoxy]-5-pyrimidinyl}-3-[2,4-bis(trifluoromethyl)phenyl]urea]		55%	
Nc1ncc(C(F)(F)F)cc1-c1ccc(Oc2ncc(NC(=O)Nc3cc(C(F)(F)F)ccc3-n3cc(Cl)cn3)cn2)cc1 [Example 15-87, 1-(2-{4-[2-amino-5-(trifluoromethyl)-3-pyridinyl]phenoxy}-5-pyrimidinyl)-3-[2-(4-chloro-1H-pyrazol-1-yl)-5-(trifluoromethyl)phenyl]urea]		57%	
CS(=O)(=O)c1ccc(C(F)(F)F)cc1NC(=O)Nc1cnc(Oc2ccc(-c3cc(C(F)(F)F)cnc3N)cc2)nc1 [Example 15-98, 1-(2-{4-[2-amino-5-(trifluoromethyl)-3-pyridinyl]phenoxy}-5-pyrimidinyl)-3-[2-(methylsulfonyl)-5-(trifluoromethyl)phenyl]urea]		57%	
CS(=O)(=O)c1ccc(C(F)(F)F)cc1NC(=O)Nc1cnc(Oc2ccc(-c3cc(Cl)cnc3N)cc2)nc1 [Example 15-104, 1-{2-[4-(2-amino-5-chloro-3-pyridinyl)phenoxy]-5-pyrimidinyl}-3-[2-(methylsulfonyl)-5-(trifluoromethyl)phenyl]urea]		54%	
COc1ccn2ncc(-c3ccc(Oc4ncc(NC(=O)Nc5cc(C(F)(F)F)ccc5-c5cccnc5)cn4)cc3)c2n1 [Example 21-9, 1-(2-(4-(5-methoxypyrazolo[1,5-a]pyrimidin-3-yl)phenoxy)pyrimidin-5-yl)-3-(2-(pyridin-3-yl)-5-(trifluoromethyl)phenyl)urea]	64%		
O=C(Nc1cnc(Oc2ccc(-c3cnn4cccnc34)cc2)nc1)Nc1cc(C(F)(F)F)ccc1-c1cccnc1 [Example 21-13, l-(2-(4-(pyrazolo[1,5-a]pyrimidin-3-yl)phenoxy)pyrimidin-5-yl)-3-(2-(pyridin-3-yl)-5-(trifluoromethyl)phenyl)urea]	66%		
CN(C)c1ccn2ncc(-c3ccc(Oc4ncc(NC(=O)Nc5cc(C(F)(F)F)ccc5-c5cccnc5)cn4)cc3)c2n1 [Example 21-37, 1-(2-{4-[5-(dimethylamino)pyrazolo[1,5-a]pyrimidin-3-yl]phenoxy}-5-pyrimidinyl)-3-[2-(3-pyridinyl)-5-(trifluoromethyl)phenyl]urea]		67%	
CN(C)c1ccn2ncc(-c3ccc(Oc4ncc(NC(=O)Nc5cc(C(F)(F)F)ccc5-c5ccnn5C)cn4)cc3)c2n1 [Example 21-51, 1-(2-{4-[5-(dimethylamino)pyrazolo[1,5-a]pyrimidin-3-yl]phenoxy}-5-pyrimidinyl)-3-[2-(1-methyl-1H-pyrazol-5-yl)-5-(trifluoromethyl)phenyl]urea]		68%	
CN(C)c1ccn2ncc(-c3ccc(Oc4ncc(NC(=O)Nc5cc(C(F)(F)F)ccc5-c5ccccc5)cn4)cc3)c2n1 [Example 21-70, 1-(2-{4-[5-(dimethylamino)pyrazolo[1,5-a]pyrimidin-3-yl]phenoxy}-5-pyrimidinyl)-3-[4-(trifluoromethyl)-2-biphenylyl]urea]		61%	
Cc1cccc(-c2ccc(C(F)(F)F)cc2NC(=O)Nc2cnc(Oc3ccc(-c4cnn5ccc(N(C)C)nc45)cc3)nc2)c1 [Example 21-73, 1-(2-{4-[5-(dimethylamino)pyrazolo[1,5-a]pyrimidin-3-yl]phenoxy}-5-pyrimidinyl)-3-[3′-methyl-4-(trifluoromethyl)-2-biphenylyl]urea]		62%	
CN1CC[C@]23c4c5ccc(O)c4O[C@H]2[C@@H](O)C=C[C@H]3[C@H]1C5 [Morphine, morphine, reference compound]			Percent improvement (%) (3 mg/kg subcutaneously 1 hour before the measurement, positive control drug): 54%
COc1cccc(C2(O)CCCCC2CN(C)C)c1 (centres unmarked) [Tramadol, tramadol, reference compound]			Percent improvement (%) (10 mg/kg subcutaneously 1 hour before the measurement, positive control drug): 43%
